Source: patent US20160219881A1, “HERBICIDALLY ACTIVE 2-HALOGEN-4-ALKYNYL-PHENYL-PYRAZOLIDINE-DIONE OR PYRROLIDINE-DIONE DERIVATIVES” (SYNGENTA LIMITED, priority 2013, published 2016)

Key:
Test in all cases: Biological Example 3 (Test 2 glasshouse assay), post-emergence herbicidal activity
Format in all cases: in vivo
[1] = test system: SORVU (Sorghum bicolor (L.) Moench ssp. Bicolor, or Sorghum vulgare Pers.)
Procedure: (§1) Seeds of a variety of monocotyledonous and dicotyledonous test plants are sown in standard soil in pots. The plants are cultivated for one day (for pre-emergence) or for about 12 days (range=10-13 days) (for post-emergence) under controlled conditions in a glasshouse (warm climate species at 24/18° C., cool climate species at 20/16° C., both at day/night; 16 hours light; 65% humidity).
(§2) An “instant formulation”, known as the “IF50”, containing 50 g/litre (i.e. 5% w/v) of the “technical” (i.e. unformulated) active ingredient is prepared by dissolving the active ingredient in a mixture of organic solvents and emulsifier, details of which are provided in the Table below. This IF50 is then mixed with a small, variable amount of acetone to aid dissolution, before addition of a 0.2% v/v aqueous solution of the adjuvant X-77 (which is a mixture of alkyl aryl polyoxyethylene glycols and free fatty acids in isopropanol, CAS Registry number 11097-66-8), as the aqueous diluent, to form an aqueous spray solution which contains a predetermined concentration of the active ingredient (which varies depending on the application rate of the active ingredient to the plants) and 0.2% v/v of the adjuvant X-77. This aqueous spray solution is then sprayed onto the plants, after one day's cultivation (for pre-emergence) or after about 12 days' cultivation (for post-emergence).
(§3) The test plants are then grown on, in a glasshouse (greenhouse) under controlled conditions (at either 24/18° C. or 20/16° C. (day/night) as mentioned above; 16 hours light; 65% humidity) and are watered twice daily. Either 15 days after application of the test compound (15 DAA) (for post-emergence), or 20 days after application of the test compound (20 DAA) (for pre-emergence), the test plants are evaluated visually, and an assessed percentage phytotoxicity score is given for each compound application on each plant species (where 100%=total damage to plant; 0%=no damage to plant).
(§4) Cool climate crop plants: Triticum aestivum (TRZAW, winter wheat), Brassica napus (BRSNN, rape, also called oilseed rape or rapeseed), Beta vulgaris (BEAVA, sugar beet). Warm climate crop plants: Glycine max (GLXMA, soybean). Cool climate (“cool season”) grassy monocotyledonous weeds: Alopecurus myosuroides (ALOMY), Avena fatua (AVEFA), Lolium perenne (LOLPE). Warm climate (“warm season”) grassy monocotyledonous weeds: Setaria faberi (SETFA), SORVU (Sorghum bicolor (L.) Moench ssp. Bicolor, or Sorghum vulgare Pers.), Digitaria sanguinalis (DIGSA), Echinochloa crus-galli (ECHCG), and Brachiaria plantaginea (BRAPL).

[2] = test system: Brassica napus (BRSNN, rape)
Procedure: as §1, §2, §3, §4

[3] = test system: Alopecurus myosuroides (ALOMY)
Procedure: as §1, §2, §3, §4

[4] = test system: Echinochloa crus-galli (ECHCG)
Procedure: as §1, §2, §3, §4

[5] = test system: Beta vulgaris (BEAVA, sugar beet)
Procedure: as §1, §2, §3, §4

[6] = test system: Triticum aestivum (TRZAW, winter wheat)
Procedure: as §1, §2, §3, §4

[7] = test system: Digitaria sanguinalis (DIGSA)
Procedure: as §1, §2, §3, §4

[8] = test system: Brachiaria plantaginea (BRAPL)
Procedure: as §1, §2, §3, §4

[9] = test system: Glycine max (GLXMA, soybean)
Procedure: as §1, §2, §3, §4

Lolium perenne (LOLPE) = test system: Lolium perenne (LOLPE)
Procedure: as §1, §2, §3, §4

ZEAMX = test system: ZEAMX
Procedure: Seeds of a variety of monocotyledonous and dicotyledonous test plants are sown in standard soil in pots. The plants are cultivated for one day (for pre-emergence) or for about 12 days (range=10-13 days) (for post-emergence) under controlled conditions in a glasshouse (warm climate species at 24/18° C., cool climate species at 20/16° C., both at day/night; 16 hours light; 65% humidity). An “instant formulation”, known as the “IF50”, containing 50 g/litre (i.e. 5% w/v) of the “technical” (i.e. unformulated) active ingredient is prepared by dissolving the active ingredient in a mixture of organic solvents and emulsifier, details of which are provided in the Table below. This IF50 is then mixed with a small, variable amount of acetone to aid dissolution, before addition of a 0.2% v/v aqueous solution of the adjuvant X-77 (which is a mixture of alkyl aryl polyoxyethylene glycols and free fatty acids in isopropanol, CAS Registry number 11097-66-8), as the aqueous diluent, to form an aqueous spray solution which contains a predetermined concentration of the active ingredient (which varies depending on the application rate of the active ingredient to the plants) and 0.2% v/v of the adjuvant X-77. This aqueous spray solution is then sprayed onto the plants, after one day's cultivation (for pre-emergence) or after about 12 days' cultivation (for post-emergence). The test plants are then grown on, in a glasshouse (greenhouse) under controlled conditions (at either 24/18° C. or 20/16° C. (day/night) as mentioned above; 16 hours light; 65% humidity) and are watered twice daily. Either 15 days after application of the test compound (15 DAA) (for post-emergence), or 20 days after application of the test compound (20 DAA) (for pre-emergence), the test plants are evaluated visually, and an assessed percentage phytotoxicity score is given for each compound application on each plant species (where 100%=total damage to plant; 0%=no damage to plant).

Setaria faberi (SETFA) = test system: Setaria faberi (SETFA)
Procedure: as §1, §2, §3, §4

Row | Structure (SMILES) | Post-Emergence Herbicidal Activity (Percentage Phytotoxicity) SORVU ([1]; 30 g/ha (rate by row order)) | Post-Emergence Herbicidal Activity (Percentage Phytotoxicity) SORVU ([1]; 125 g/ha (rate by row order)) | Post-Emergence Herbicidal Activity (Percentage Phytotoxicity) BRSNN ([2]; 30 g/ha) | Post-Emergence Herbicidal Activity (Percentage Phytotoxicity) BRSNN ([2]; 125 g/ha) | Post-Emergence Herbicidal Activity (Percentage Phytotoxicity) ALOMY ([3]; 30 g/ha) | Post-Emergence Herbicidal Activity (Percentage Phytotoxicity) ALOMY ([3]; 125 g/ha) | Post-Emergence Herbicidal Activity (Percentage Phytotoxicity) ECHCG ([4]; 30 g/ha (rate by row order)) | Post-Emergence Herbicidal Activity (Percentage Phytotoxicity) ECHCG ([4]; 125 g/ha (rate by row order)) | Post-Emergence Herbicidal Activity (Percentage Phytotoxicity) BEAVA ([5]; 30 g/ha) | Post-Emergence Herbicidal Activity (Percentage Phytotoxicity) BEAVA ([5]; 125 g/ha) | Post-Emergence Herbicidal Activity (Percentage Phytotoxicity) TRZAW ([6]; 30 g/ha) | Post-Emergence Herbicidal Activity (Percentage Phytotoxicity) TRZAW ([6]; 125 g/ha) | Post-Emergence Herbicidal Activity (Percentage Phytotoxicity) DIGSA ([7]; 30 g/ha (rate by row order)) | Post-Emergence Herbicidal Activity (Percentage Phytotoxicity) DIGSA ([7]; 125 g/ha (rate by row order)) | Post-Emergence Herbicidal Activity (Percentage Phytotoxicity) BRAPL ([8]; 30 g/ha (rate by row order)) | Post-Emergence Herbicidal Activity (Percentage Phytotoxicity) BRAPL ([8]; 125 g/ha (rate by row order)) | Post-Emergence Herbicidal Activity (Percentage Phytotoxicity) GLXMA ([9]; 30 g/ha) | Post-Emergence Herbicidal Activity (Percentage Phytotoxicity) GLXMA ([9]; 125 g/ha) | Post-Emergence Herbicidal Activity (Percentage Phytotoxicity) LOLPE (Lolium perenne (LOLPE); 30 g/ha) | Post-Emergence Herbicidal Activity (Percentage Phytotoxicity) LOLPE (Lolium perenne (LOLPE); 125 g/ha) | further results
1 | CC#Cc1cc(C)c(C2C(=O)N(C)N(C)C2=O)c(C)c1 [Compound A1] | 70% | 80% | 70% | 70% | 10% | 70% | 70% | 90% | 0% | 10% | 30% | 80% | 80% | 90% | 70% | 100% | 30% | 70% | 30% | 80% | Post-Emergence Herbicidal Activity (Percentage Phytotoxicity) ZEAMX (ZEAMX; 30 g/ha (rate by row order)): 90%; Post-Emergence Herbicidal Activity (Percentage Phytotoxicity) ZEAMX (ZEAMX; 125 g/ha (rate by row order)): 100%
2 | CC#Cc1cc(C)c(C2C(=O)N3CCCCCN3C2=O)c(C)c1 [Compound A23, 2-(2,6-dimethyl-4-prop-1-ynyl-phenyl)-6,7,8,9-tetrahydro-5H-pyrazolo[1,2-a]diazepine-1,3-dione] | 50% | 70% | 30% | 50% | 0% | 50% | 0% | 20% | 10% | 40% | 0% | 50% | 30% | 70% | 0% | 10% | 0% | 70% | 0% | 40% | Post-Emergence Herbicidal Activity (Percentage Phytotoxicity) SETFA (Setaria faberi (SETFA); 30 g/ha (rate by row order)): 0%; Post-Emergence Herbicidal Activity (Percentage Phytotoxicity) SETFA (Setaria faberi (SETFA); 125 g/ha (rate by row order)): 70%; Post-Emergence Herbicidal Activity (Percentage Phytotoxicity) ZEAMX (ZEAMX; 30 g/ha (rate by row order)): 0%; Post-Emergence Herbicidal Activity (Percentage Phytotoxicity) ZEAMX (ZEAMX; 125 g/ha (rate by row order)): 30%
3 | CC#Cc1cc(C)c(-c2c(OC(=O)C(C)(C)C)n(C)n(C)c2=O)c(C)c1 [Compound P1] | 60% | 80% | 80% | 80% | 60% | 70% | 70% | 100% | 10% | 40% | 0% | 70% | 90% | 100% | 70% | 100% | 30% | 40% | 50% | 80% | Post-Emergence Herbicidal Activity (Percentage Phytotoxicity) SORVU ([1]; 8 g/ha (rate by row order)): 50%; Post-Emergence Herbicidal Activity (Percentage Phytotoxicity) BRSNN ([2]; 8 g/ha): 0%; Post-Emergence Herbicidal Activity (Percentage Phytotoxicity) SETFA (Setaria faberi (SETFA); 8 g/ha (rate by row order)): 20%; Post-Emergence Herbicidal Activity (Percentage Phytotoxicity) SETFA (Setaria faberi (SETFA); 30 g/ha (rate by row order)): 90%; Post-Emergence Herbicidal Activity (Percentage Phytotoxicity) SETFA (Setaria faberi (SETFA); 125 g/ha (rate by row order)): 100%; Post-Emergence Herbicidal Activity (Percentage Phytotoxicity) ALOMY ([3]; 8 g/ha): 40%; Post-Emergence Herbicidal Activity (Percentage Phytotoxicity) ECHCG ([4]; 8 g/ha (rate by row order)): 20%; Post-Emergence Herbicidal Activity (Percentage Phytotoxicity) BEAVA ([5]; 8 g/ha): 30%; Post-Emergence Herbicidal Activity (Percentage Phytotoxicity) TRZAW ([6]; 8 g/ha): 0%; Post-Emergence Herbicidal Activity (Percentage Phytotoxicity) DIGSA ([7]; 8 g/ha (rate by row order)): 80%; Post-Emergence Herbicidal Activity (Percentage Phytotoxicity) BRAPL ([8]; 8 g/ha (rate by row order)): 60%; Post-Emergence Herbicidal Activity (Percentage Phytotoxicity) GLXMA ([9]; 8 g/ha): 10%; Post-Emergence Herbicidal Activity (Percentage Phytotoxicity) LOLPE (Lolium perenne (LOLPE); 8 g/ha): 30%; Post-Emergence Herbicidal Activity (Percentage Phytotoxicity) ZEAMX (ZEAMX; 8 g/ha (rate by row order)): 60%; Post-Emergence Herbicidal Activity (Percentage Phytotoxicity) ZEAMX (ZEAMX; 30 g/ha (rate by row order)): 70%; Post-Emergence Herbicidal Activity (Percentage Phytotoxicity) ZEAMX (ZEAMX; 125 g/ha (rate by row order)): 100%
